These results are taken from patent publication US20080300298A1, “Honokiol Derivates For the Treatment of Proliferative Disorders” (priority 2005, published 2008).

The subject of one test is HUVEC. As to the kind of experiment: In Vitro Angiogenesis Assay (tube formation). The conditions noted are these: 8 ug/ml, 6 h. It is filed as cell-based, human.
The next test deals with IkBa and p65. As to the kind of experiment: Western blot / immunocytochemistry of TNF-induced IkBa and p65 events. It is filed as cell-based, human. Here is the method:
Honokiol inhibits TNF-induced activation of NF-kB. H1299 cells were incubated with […] honokiol for 12 h, treated with 0.1 nM TNF for the indicated times, and then analyzed for NF-kB activation by EMSA. (B) H1299 cells (2×10^6/ml) were incubated with […] honokiol for 12 h at 37° C., treated with 0.1 nM TNF for the indicated times at 37° C., and then tested for IkBa (upper panel) in cytosolic fractions by Western blot analysis. Equal protein loading was evaluated by b-actin (lower panel). (C) Honokiol blocks the phosphorylation and ubiquitination (D) of IkBaby TNF. Cells were preincubated with […] honokiol for 12 h, incubated with […]/ml N-acetyl-leucyl-leucyl-norleucinal (ALLN) for 30 min, and then treated with 0.1 nM TNF for 10 min. Cytoplasmic extracts were fractionated and then subjected to Western blot analysis using phospho-specific anti-IkBa antibody. The same membrane was reblotted with anti-IkBa antibody. (E) Honokiol inhibits TNF-induced IkBakinase activity. H1299 cells (2×10^6/ml) were treated with […] honokiol for 12 h and then treated with 0.1 nM TNF for the indicated time intervals. Whole-cell extracts were prepared, and 200 mg of extract was immunoprecipitated with antibodies against IKKa and IKKb. The immune complex kinase assay was then performed as described in Materials and Methods. To examine the effect of honokiol on the level of expression of IKK proteins, 30 mg of whole-cell extract was analyzed on 10% SDS-PAGE, electrotransferred, and immunoblotted with the indicated antibodies as described in Materials and Methods. (F) Honokiol inhibits TNF-induced nuclear translocation of p65. H1299 cells (2×10^6/ml) were either untreated or pretreated with […] honokiol for 12 h at 37° C. and then treated with 0.1 nM TNF for the indicated times. Nuclear extracts were prepared and analyzed by Western blotting using antibodies against p65. (G) honokiol inhibits TNF-induced nuclear translocation of p65. H1299 cells (1×10^6/ml) were first treated with […] honokiol for 12 h at 37° C. and then exposed to 0.1 nM TNF. After cytospin, immunocytochemical analysis was performed as described in Materials and Methods. […] (H) Honokiol inhibits TNF-induced phosphorylation of p65. H1299 cells (2×10^6/ml) were incubated with 25 mM honokiol for 12 h and then treated with 0.1 nM TNF for the indicated times. The cytoplasmic and nuclear extracts were analyzed by Western blotting using antibodies against the phosphorylated form of p65.
Western blot analysis. […] Cytoplasmic protein […] was resolved on 10% SDS-PAGE gel, transferred to a nitrocellulose membrane, blocked with 5% non-fat milk, and probed with specific antibodies against IkBa, posphorylated IkBa, p65, and phosphorylated p65. To determine the expression of cyclin D1, COX-2, MMP-9, cIAP-1, TRAF1, Bcl-2, Bfl-1, cFLIP, and survivin in whole-cell extracts of treated cells (2×10^6 cells in 2 ml of medium), […] of protein was resolved on SDS-PAGE and probed by Western blot with specific antibodies as per the manufacturer's recommended protocol. The blots were washed, exposed to HRP-conjugated secondary antibodies for 1 h, and finally detected by ECL reagent (Amersham Pharmacia Biotechnology, Piscataway, N.J.). The bands were quantified using a Personal Densitometer Scan v1.30 using Imagequant software version 3.3 (Molecular Dynamics).
Immunolocalization of NF-kB p65. […]
(In general: In western blotting, separated proteins are transferred to a membrane and probed.)

The next test has as its system NF-kB in A293 cells. Description: NF-kB-dependent reporter gene (SEAP) transcription. The following applies: A293, 25 mM (printed) honokiol 12 h. It is filed as cell-based, human.
The test system of the next test is BT-474 cells. Description: MTT proliferation assay. The test is classed as cell-based. The conditions noted are these: Homo sapiens, BT-474, 24 h, read-out: concentration that reduced viability by 50% (LC50). Here is the method:
(§1) Cell lines: All cell lines were obtained from American Type Culture Collection. The breast cancer cell lines used: MCF-7 and BT-474 cells were grown in DMEM medium containing 10% FCS; MDA-MB-231, SK-BR-3, MDA-MB-436 and T47-D cells were grown in RPMI medium containing 10% FCS. The glioblastoma multiforme cell lines (U343 and T98G) were maintained in DMEM modified medium containing 10% FCS.
(§2) 3-(4,5-dimethylthiazol-2-yl)-2,5-diphenyltetrazolium bromide (MTT) proliferation assays: 3×10^3 cells/well were plated in 96-well plates, cultured in the appropriate culture media containing 10% FCS, and treated with either control vehicle or various concentrations of HNK, alone or with a secondary drug, as indicated. All secondary drugs were freshly diluted in growth media and immediately added to cells along with the HNK. After 24 hours of incubation at 37° C., 5% CO2, the cells were cultured for four hours with 10% MTT reagent (5 mg/ml; Sigma-Aldrich, St. Louis, Mo.). The medium was aspirated, and the cells were dissolved by dimethyl sulfoxide (DMSO). Absorbance of the formazan product was measured by an enzyme-linked immunosorbent assay reader (Macintosh).
(§3) HNK inhibits growth of breast cancer cells. Breast cancer cells were treated with different concentrations of HNK for 24 hours, and MTT assays were conducted to assess viability. The selected cell lines have different phenotypes and different expression patterns of the estrogen receptor (ER), Her2 and p53, and thus represent various subclasses of breast cancer. […] Similar analyses were also conducted for two glioblastoma multiforme cell lines, U343 and T98G. Over the same dose-range (10-70 μM), both cell lines were resistant to HNK (FIGS. 34 A, B).

The test system of another test is SKBR-3 cell. Description: MTT proliferation assay. The test is classed as cell-based. The conditions noted are these: Homo sapiens, SK-BR-3, 24 h, read-out: concentration that reduced viability by 50% (LC50). How it is done:
as §1, §2, §3

Test [1] relates to glioblastoma multiforme cell lines, U343 and T98G. Description: MTT proliferation assay. The test is classed as cell-based. The conditions noted are these: 10-70 μM, 24 hours. How it is done: as §1, §2, §3
A general note: Formazan colour is commonly taken as a measure of viable cells.

The next test deals with JNK in CH12.LX cells. As to the kind of experiment: JNK phosphorylation (Western blotting). The following applies: CH12.LX cells transfected with hCD40-LMP1. The test is classed as cell-based, mouse. The source says: The cells were pelleted by centrifugation, lysed and analyzed by SDS PAGE and Western blotting. Peroxidase-labeled antibodies were visualized on Western blots using a chemilluminescent detection reagent to assay for JNK phosphorylation.

Test [2] concerns human promyelocytic leukemic cell line HL-60. The following applies: cited from earlier work.

Description for NF-kB in A293 cells: A293 cells were transiently transfected with an NF-kB-containing plasmid linked to the SEAP gene and then treated with the indicated concentrations of honokiol. After 24 h in culture with 0.1 nM TNF, cell supernatants were collected and assayed for SEAP activity. Results are expressed as fold activity over the activity of the vector control. […] A293 cells were transiently transfected with the indicated plasmids along with an NF-kB-containing plasmid linked to the SEAP gene and then left either untreated or treated with 25 mM honokiol for 12 h. Cell supernatants were assayed for secreted alkaline phosphatase activity. Results are expressed as fold activity over the activity of the vector control. Bars indicate standard deviation.
NF-kB-dependent reporter gene transcription. The effect of honokiol on TNF-induced NF-kB dependent reporter gene transcription in A293 cells was measured as previously described (Shishodia, S., et al. 2003 Cancer Res. 63:4375-4383).
To test the effect of honokiol on NF-kB-dependent gene transcription, cells were transiently transfected with the NF-kB-regulated SEAP reporter construct and then stimulated with TNF.

As for `C=CCc1ccc(O)c(-c2ccc(O)c(CC=C)c2)c1` [HNK, Honokiol], the “tube formation by endothelial cells” value with HUVEC is “significantly inhibited the tube formation”. The “TNF-induced phosphorylation of p65” value in the test with IkBa and p65 is given as “suppressed p65 phosphorylation almost completely”. The “TNF-dependent IkBa degradation” value in the test on IkBa and p65 (25 mM (printed) honokiol 12 h, 0.1 nM TNF) is “TNF had no effect on IkBa degradation”. The “TNF-induced nuclear translocation of p65” value with IkBa and p65 (Western blot analysis) is on record as “suppressed nuclear translocation of the p65 subunit of NF-kB”. For the same compound, in the test on IkBa and p65 (with ALLN, 0.1 nM TNF 10 min), the “TNF-induced IkBa phosphorylation” value is recorded as “completely suppressed it” and the “TNF-induced IkBa ubiquitination” value is “completely suppressed it”. In addition, the “SEAP expression induced by TNFR1, TRADD, TRAF2, NIK, IKKb, and p65 plasmids” value with NF-kB in A293 cells is “suppressed SEAP expression in all cells except those transfected with p65”. In addition, in the test on BT-474 cells, the CC50 was 50 µM. Also, the CC50 with SKBR-3 cell stood at 29 µM. The “viability of glioblastoma multiforme cell lines” value in test [1] is “resistant”. Also, in the test on JNK in CH12.LX cells, the JNK phosphorylation result is reported as “inhibited by honokiol in a dose dependent manner”. Further, the IC50 value entry in test [2] is “less than 100 ng/ml”.
